In PubChem BioAssay AID1918948 (Molecular Pharmacology Branch, DTP, NCI, 2023):

System: K-562 leukemia growth, % test/control
Test: Anticancer human tumor K-562 cell line growth inhibition;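 note: spheroids exposed to compounds for 7 days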;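 for viability, T/C: 100% = DMSO vehicle wells and lower values mean fewer viable cells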
Conditions: spheroids with HUVEC and MSC; for IC50: curve of first compound; for viability, T/C: stronger effect = lower value
Method in brief: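 Multicellular complex spheroids of tumor cells with human endothelial cells (HUVEC) and mesenchymal stem cells; the LSD1 inhibitor iadademstat was combined with standard-of-care or investigational agents. Top concentration at or near clinical Cmax, half-log dilutions; final DMSO ≤0.25%.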

## Nc1ccccc1NC(=O)c1ccc(CNC(=O)OCc2cccnc2)cc1 + NC1CCC(NC2CC2c2ccccc2)CC1
Second compound 0.1 µM
  IC50: 274 nM
Second compound 0.316 µM
  IC50: 325 nM
Second compound 1 µM
  IC50: 280 nM
Second compound 3.16 µM
  IC50: 225 nM
Second compound 10 µM
  IC50: 75.5 nM
Second compound 0.1 µM, first compound 0.00949 µM
  viability, T/C: 106%
Second compound 0.1 µM, first compound 0.03 µM
  viability, T/C: 106%
Second compound 0.1 µM, first compound 0.0949 µM
  viability, T/C: 103%
Second compound 0.1 µM, first compound 0.3 µM
  viability, T/C: 45.5%
Second compound 0.1 µM, first compound 0.949 µM
  viability, T/C: 3.36%
Second compound 0.1 µM, first compound 3 µM
  viability, T/C: 0.18%
Second compound 0.316 µM, first compound 0.00949 µM
  viability, T/C: 107%
Second compound 0.316 µM, first compound 0.03 µM
  viability, T/C: 105%
Second compound 0.316 µM, first compound 0.0949 µM
  viability, T/C: 103%
Second compound 0.316 µM, first compound 0.3 µM
  viability, T/C: 53.5%
Second compound 0.316 µM, first compound 0.949 µM
  viability, T/C: 3.47%
Second compound 0.316 µM, first compound 3 µM
  viability, T/C: 0.16%
Second compound 1 µM, first compound 0.00949 µM
  viability, T/C: 106%
Second compound 1 µM, first compound 0.03 µM
  viability, T/C: 107%
Second compound 1 µM, first compound 0.0949 µM
  viability, T/C: 100%
Second compound 1 µM, first compound 0.3 µM
  viability, T/C: 46.9%
Second compound 1 µM, first compound 0.949 µM
  viability, T/C: 3.81%
Second compound 1 µM, first compound 3 µM
  viability, T/C: 0.17%
Second compound 3.16 µM, first compound 0.00949 µM
  viability, T/C: 105%
Second compound 3.16 µM, first compound 0.03 µM
  viability, T/C: 107%
Second compound 3.16 µM, first compound 0.0949 µM
  viability, T/C: 93.2%
Second compound 3.16 µM, first compound 0.3 µM
  viability, T/C: 35.6%
Second compound 3.16 µM, first compound 0.949 µM
  viability, T/C: 4.43%
Second compound 3.16 µM, first compound 3 µM
  viability, T/C: 1.18%
Second compound 10 µM, first compound 0.00949 µM
  viability, T/C: 92.5%
Second compound 10 µM, first compound 0.03 µM
  viability, T/C: 83.8%
Second compound 10 µM, first compound 0.0949 µM
  viability, T/C: 39.9%
Second compound 10 µM, first compound 0.3 µM
  viability, T/C: 14.1%
Second compound 10 µM, first compound 0.949 µM
  viability, T/C: 2.97%
Second compound 10 µM, first compound 3 µM
  viability, T/C: 0.24%

## O=C(c1cc(Cc2n[nH]c(=O)c3ccccc23)ccc1F)N1CCN(C(=O)C2CC2)CC1 + NC1CCC(NC2CC2c2ccccc2)CC1
Second compound 0.1 µM
  IC50: > 10000 nM
Second compound 0.316 µM
  IC50: > 10000 nM
Second compound 1 µM
  IC50: > 10000 nM
Second compound 3.16 µM
  IC50: > 10000 nM
Second compound 10 µM
  IC50: > 10000 nM
Second compound 0.1 µM, first compound 0.0316 µM
  viability, T/C: 98.2%
Second compound 0.1 µM, first compound 0.1 µM
  viability, T/C: 97.4%
Second compound 0.1 µM, first compound 0.316 µM
  viability, T/C: 96%
Second compound 0.1 µM, first compound 1 µM
  viability, T/C: 94.2%
Second compound 0.1 µM, first compound 3.16 µM
  viability, T/C: 82.7%
Second compound 0.1 µM, first compound 10 µM
  viability, T/C: 51.2%
Second compound 0.316 µM, first compound 0.0316 µM
  viability, T/C: 101%
Second compound 0.316 µM, first compound 0.1 µM
  viability, T/C: 99.6%
Second compound 0.316 µM, first compound 0.316 µM
  viability, T/C: 98.6%
Second compound 0.316 µM, first compound 1 µM
  viability, T/C: 95%
Second compound 0.316 µM, first compound 3.16 µM
  viability, T/C: 83.2%
Second compound 0.316 µM, first compound 10 µM
  viability, T/C: 51.2%
Second compound 1 µM, first compound 0.0316 µM
  viability, T/C: 99.4%
Second compound 1 µM, first compound 0.1 µM
  viability, T/C: 100%
Second compound 1 µM, first compound 0.316 µM
  viability, T/C: 98.3%
Second compound 1 µM, first compound 1 µM
  viability, T/C: 94.4%
Second compound 1 µM, first compound 3.16 µM
  viability, T/C: 85.6%
Second compound 1 µM, first compound 10 µM
  viability, T/C: 53.1%
Second compound 3.16 µM, first compound 0.0316 µM
  viability, T/C: 102%
Second compound 3.16 µM, first compound 0.1 µM
  viability, T/C: 101%
Second compound 3.16 µM, first compound 0.316 µM
  viability, T/C: 98.2%
Second compound 3.16 µM, first compound 1 µM
  viability, T/C: 95%
Second compound 3.16 µM, first compound 3.16 µM
  viability, T/C: 84.8%
Second compound 3.16 µM, first compound 10 µM
  viability, T/C: 54.4%
Second compound 10 µM, first compound 0.0316 µM
  viability, T/C: 95.4%
Second compound 10 µM, first compound 0.1 µM
  viability, T/C: 98.8%
Second compound 10 µM, first compound 0.316 µM
  viability, T/C: 98.5%
Second compound 10 µM, first compound 1 µM
  viability, T/C: 92.2%
Second compound 10 µM, first compound 3.16 µM
  viability, T/C: 81%
Second compound 10 µM, first compound 10 µM
  viability, T/C: 53.3%
